Assay results published in PMC12168924, “Construction of the reduced nicotinamide adenine dinucleotide salvage pathway in artificial cells and its application in amino acid synthesis” (Chemical Science, 2025).

Columns and labels:
[1] = target: T1, ribose-phosphate pyrophosphokinase (RPPK) (Mycobacterium tuberculosis, UniProt P9WKE3); assay: HPLC of AMP formation, inhibition at rising ADP; type: biochemical; conditions: inhibitor; assay per b47: R-5-P, ATP, MgCl2, 40 mM KH2PO4, Tris-HCl pH 8.0, 37 °C
T1 construct: gene prs
T1 sequence (P9WKE3 whole entry): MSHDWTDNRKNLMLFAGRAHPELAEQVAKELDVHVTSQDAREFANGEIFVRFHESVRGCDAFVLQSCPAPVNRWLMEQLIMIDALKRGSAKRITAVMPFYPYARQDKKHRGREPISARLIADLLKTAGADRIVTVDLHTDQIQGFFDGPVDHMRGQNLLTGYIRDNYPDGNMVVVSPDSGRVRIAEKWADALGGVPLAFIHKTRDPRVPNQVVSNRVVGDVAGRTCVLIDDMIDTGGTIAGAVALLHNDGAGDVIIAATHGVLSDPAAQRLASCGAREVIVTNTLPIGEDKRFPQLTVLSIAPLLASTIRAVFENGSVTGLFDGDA

[2] = target: T2, nicotinamide phosphoribosyltransferase (NAMPT) (Chitinophaga pinensis, UniProt A0A979FZM9); assay: HPLC of NMN formation; type: biochemical; conditions: PRPP made in situ by RPPK, 5 mM MgCl2, pH 8.0, 37 °C
T2 construct: gene Cpin_0607
T2 sequence (A0A979FZM9 1-471): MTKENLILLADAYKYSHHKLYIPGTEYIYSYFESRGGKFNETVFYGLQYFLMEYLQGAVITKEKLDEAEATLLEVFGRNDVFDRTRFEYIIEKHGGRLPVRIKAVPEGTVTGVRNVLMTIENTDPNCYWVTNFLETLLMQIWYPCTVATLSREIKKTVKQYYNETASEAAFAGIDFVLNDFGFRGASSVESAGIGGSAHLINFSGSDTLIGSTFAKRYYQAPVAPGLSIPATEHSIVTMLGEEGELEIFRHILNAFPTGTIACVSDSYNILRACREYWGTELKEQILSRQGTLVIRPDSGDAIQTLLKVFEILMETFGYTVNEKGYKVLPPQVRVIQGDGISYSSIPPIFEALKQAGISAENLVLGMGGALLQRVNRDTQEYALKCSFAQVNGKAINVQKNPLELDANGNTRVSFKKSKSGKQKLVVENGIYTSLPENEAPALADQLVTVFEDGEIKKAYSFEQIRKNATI

HPLC of NMN depletion = substrate: NC(=O)c1ccc[n+]([C@@H]2O[C@H](COP(=O)(O)O)[C@@H](O)[C@H]2O)c1; assay: HPLC of NMN depletion; type: biochemical, Acinetobacter baylyi; conditions: assay per b51: ATP, MgCl2, 40 mM KH2PO4, 50 mM Tris-HCl pH 8.0, 37 °C, kinetic details in supplement

For `Nc1ncnc2c1ncn2[C@@H]1O[C@H](COP(=O)(O)OP(=O)(O)O)[C@@H](O)[C@H]1O` [ADP], the “HPLC of AMP formation, inhibition at rising ADP” value [1] was “ADP was found to significantly inhibit RPPK activity”.

With `O=P(O)(O)OC[C@H]1O[C@H](OP(=O)(O)OP(=O)(O)O)[C@H](O)[C@@H]1O` [PRPP] the “HPLC of NMN formation” value [2] was “PRPP, an enzyme cascade was employed to synthesize PRPP for assessing NAMPT activity”.

B1: nicotinamide mononucleotide adenylyltransferase (NMNAT) (Acinetobacter baylyi ADP1) (protein)
chain: MYKFDYLVFIGRFQPFHFAHLQTIQIALQQSREVIIALGSAQPERNIKNPFLAEERQKMILANFSAEDQARIHFVNIIDVYNDQKWVEQVKQLVNAIIESRSHVGLIGHFKDESSYYLKLFPEWTMVELESLKESMSATPMREAYYEGKIIESAFPEGTIQFLKTFQDSEIYKQLQQKYRAQDSSNLI
Molecule B1 has a Km (HPLC of NMN depletion) of 396.6 ± 59.6 µM.
